Where two headings read alike, the source gives them in different places.
Tests used:
[1] = target: T1, JAK2 (Homo sapiens, UniProt O60674); test: Kinobeads assay, JAK2 (competition binding in mixed Molt4/Ramos cell lysate, dot blot detection); conditions: read-out: JAK2 Band (Kinobeads assay potency, IC50)
T1 construct: endogenous in cells; host or cells: Molt4 (ATCC CRL-1582) and Ramos (ATCC CRL-1596), mixed lysate 1:2
Procedure, shortened: (§1)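 Competition binding: compound dilutions (1:3 series, 9 steps) plus immobilized aminopyrido-pyrimidine beads incubated 3 h in the cold with mixed Molt4/Ramos lysate (1:2) at 10 mg/mL protein. Bead-bound JAK2/TYK2 eluted and quantified by antibody dot blot with infrared detection; IC50 from dose-response curves.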

[2] = target: T2, TYK2 (Homo sapiens, UniProt P29597); test: Kinobeads assay, TYK2 (competition binding in mixed Molt4/Ramos cell lysate, dot blot detection)
T2 construct: endogenous in cells; host or cells: Molt4 (ATCC CRL-1582) and Ramos (ATCC CRL-1596), mixed lysate 1:2
Procedure, shortened: as §1

[3] = Kinobeads assay, Molt4/Ramos lysate, read-out: TYK2 Band (Kinobeads assay potency, IC50)

T2 sequence (P29597 whole entry): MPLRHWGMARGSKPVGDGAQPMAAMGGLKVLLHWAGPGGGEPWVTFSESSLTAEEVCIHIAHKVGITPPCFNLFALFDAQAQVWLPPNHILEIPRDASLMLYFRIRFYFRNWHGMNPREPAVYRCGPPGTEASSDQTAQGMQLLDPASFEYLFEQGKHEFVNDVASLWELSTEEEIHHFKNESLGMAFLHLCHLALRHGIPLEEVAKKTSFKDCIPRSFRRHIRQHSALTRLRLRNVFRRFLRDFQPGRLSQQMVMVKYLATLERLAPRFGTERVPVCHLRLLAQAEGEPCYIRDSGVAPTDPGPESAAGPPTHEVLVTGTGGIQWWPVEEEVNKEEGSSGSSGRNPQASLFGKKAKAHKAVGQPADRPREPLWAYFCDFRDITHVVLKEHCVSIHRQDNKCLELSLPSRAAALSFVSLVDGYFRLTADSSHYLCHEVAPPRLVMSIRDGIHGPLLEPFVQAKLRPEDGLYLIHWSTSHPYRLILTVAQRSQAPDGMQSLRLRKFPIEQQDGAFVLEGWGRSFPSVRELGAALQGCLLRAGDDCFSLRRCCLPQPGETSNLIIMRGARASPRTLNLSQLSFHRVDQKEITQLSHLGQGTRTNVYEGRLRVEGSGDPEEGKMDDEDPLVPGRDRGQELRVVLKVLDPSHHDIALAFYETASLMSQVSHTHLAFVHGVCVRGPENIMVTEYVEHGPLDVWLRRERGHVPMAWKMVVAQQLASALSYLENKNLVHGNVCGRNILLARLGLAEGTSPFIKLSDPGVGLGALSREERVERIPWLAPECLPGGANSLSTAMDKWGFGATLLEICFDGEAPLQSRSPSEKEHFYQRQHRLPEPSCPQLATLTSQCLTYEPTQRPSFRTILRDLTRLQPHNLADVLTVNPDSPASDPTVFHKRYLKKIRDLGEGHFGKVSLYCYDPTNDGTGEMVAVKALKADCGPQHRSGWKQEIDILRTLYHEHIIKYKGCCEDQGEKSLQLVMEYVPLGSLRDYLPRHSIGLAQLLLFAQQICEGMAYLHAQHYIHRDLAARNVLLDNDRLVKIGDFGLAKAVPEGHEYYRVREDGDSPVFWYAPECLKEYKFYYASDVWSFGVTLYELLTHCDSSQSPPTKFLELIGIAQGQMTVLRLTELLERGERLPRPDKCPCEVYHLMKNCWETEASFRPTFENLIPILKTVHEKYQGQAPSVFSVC
T1 sequence (O60674 whole entry): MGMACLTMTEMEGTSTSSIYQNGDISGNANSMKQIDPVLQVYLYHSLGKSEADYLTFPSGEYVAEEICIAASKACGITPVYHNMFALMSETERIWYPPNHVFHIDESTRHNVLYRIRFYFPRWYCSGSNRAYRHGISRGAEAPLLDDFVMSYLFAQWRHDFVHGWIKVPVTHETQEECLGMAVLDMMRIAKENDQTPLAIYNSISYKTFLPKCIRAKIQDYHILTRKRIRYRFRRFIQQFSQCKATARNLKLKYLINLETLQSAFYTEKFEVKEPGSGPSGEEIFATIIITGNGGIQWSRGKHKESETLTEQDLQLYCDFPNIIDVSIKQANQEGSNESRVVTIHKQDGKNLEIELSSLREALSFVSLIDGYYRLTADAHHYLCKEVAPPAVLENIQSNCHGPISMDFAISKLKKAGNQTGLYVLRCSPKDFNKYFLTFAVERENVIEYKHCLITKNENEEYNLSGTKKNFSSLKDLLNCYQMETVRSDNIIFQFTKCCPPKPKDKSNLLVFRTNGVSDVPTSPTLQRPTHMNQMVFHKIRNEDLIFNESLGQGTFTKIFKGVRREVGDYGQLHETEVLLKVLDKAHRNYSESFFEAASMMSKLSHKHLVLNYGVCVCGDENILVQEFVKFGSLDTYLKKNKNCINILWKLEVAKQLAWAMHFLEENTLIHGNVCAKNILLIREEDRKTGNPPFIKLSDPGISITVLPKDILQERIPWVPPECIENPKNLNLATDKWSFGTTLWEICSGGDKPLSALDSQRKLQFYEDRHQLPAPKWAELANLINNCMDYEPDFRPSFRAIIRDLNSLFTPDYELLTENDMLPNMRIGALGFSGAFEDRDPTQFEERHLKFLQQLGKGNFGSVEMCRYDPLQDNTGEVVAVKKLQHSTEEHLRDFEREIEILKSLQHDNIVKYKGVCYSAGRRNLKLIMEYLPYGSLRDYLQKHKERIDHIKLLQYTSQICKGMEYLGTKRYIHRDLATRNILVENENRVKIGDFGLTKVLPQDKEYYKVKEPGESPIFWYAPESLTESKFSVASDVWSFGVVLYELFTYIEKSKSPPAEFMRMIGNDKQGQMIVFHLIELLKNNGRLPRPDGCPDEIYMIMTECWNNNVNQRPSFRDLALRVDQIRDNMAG

Row | IC50 [1] | IC50 [2, 3] | IC50 ([2]; read-out: TYK2 IC50) | SMILES
1 | 100 to 1000 nM | 10 to 100 nM |  | Cc1cnc(Nc2cnn(CC(=O)N(C)C)c2)nc1NCc1c(F)cc(F)cc1F [Example I-19]
2 | 100 to 1000 nM | 100 to 1000 nM |  | CN1CCC(n2cc(Nc3ncc(Cl)c(NCc4ccccc4)n3)cn2)C1=O (stereo not shown) [Example I-253]
3 | 1000 to 10000 nM | 100 to 1000 nM |  | CS(=O)(=O)c1ccccc1CNc1nc(Nc2cnn(CCO)c2)ncc1Cl [Example I-266]
4 | > 10000 nM | 10 to 100 nM | < 100 nM | CC(C)NC(=O)Cn1cc(Nc2nccc(NCc3c(F)cccc3F)n2)cn1 [Example I-62]
5 | 100 to 1000 nM | 100 to 1000 nM |  | Fc1ccccc1CNc1nc(Nc2cn[nH]c2)ncc1Cl [Example I-369]
6 | 1000 to 10000 nM | 10 to 100 nM |  | NS(=O)(=O)c1ccc(F)c(CNc2nc(Nc3cnn(CCO)c3)ncc2Cl)c1 [Example I-226]
7 | 1000 to 10000 nM | 100 to 1000 nM |  | CN(C)C(=O)Cn1cc(Nc2ncc(F)c(NCc3cc(F)cc(C(F)(F)F)c3)n2)cn1 [Example I-331]
8 | 1000 to 10000 nM | 100 to 1000 nM |  | Fc1cccc(F)c1CNc1nc(Nc2cnn(Cc3ncco3)c2)ncc1Cl [Example I-481]
9 | 1000 to 10000 nM | 100 to 1000 nM |  | CN(CC#N)C(=O)Cn1cc(Nc2ncc(Cl)c(NCc3ccccc3)n2)cn1 [Example I-238]
10 | 1000 to 10000 nM | 10 to 100 nM |  | NS(=O)(=O)c1cc(F)c(CNc2nc(Nc3cnn(CC(=O)N4CCCCC4)c3)ncc2F)c(F)c1 [Example I-31]
11 | 100 to 1000 nM | 10 to 100 nM |  | OCCn1cc(Nc2ncc(Cl)c(NCc3cc(OC(F)F)ccc3F)n2)cn1 [Example I-413]
12 | 100 to 1000 nM | 100 to 1000 nM |  | Fc1ccc(F)c(CNc2nc(Nc3cnn(C(F)F)c3)ncc2Cl)c1 [Example I-223]
13 | 1000 to 10000 nM | 10 to 100 nM |  | C[C@H](CO)NC(=O)Cn1cc(Nc2ncc(F)c(NCc3c(F)cc(F)cc3F)n2)cn1 [Example I-41]
14 | 1000 to 10000 nM | 10 to 100 nM |  | C[C@H]1COCCN1C(=O)Cn1cc(Nc2nccc(NCc3c(F)cc(F)cc3F)n2)cn1 [Example I-52]
15 | 100 to 1000 nM | ≤ 10 nM |  | Cc1cnc(Nc2cnn(CC(=O)N[C@H](C)CO)c2)nc1NCc1c(F)cc(F)cc1F [Example I-35]
16 | 1000 to 10000 nM | 100 to 1000 nM |  | Cc1cnc(Nc2cnn(CCO)c2)nc1NCc1ccccc1 [Example I-169]
17 | 1000 to 10000 nM | ≤ 10 nM |  | CC(C)NC(=O)Cn1cc(Nc2nccc(NCc3c(F)ccc(C#N)c3F)n2)cn1 [Example I-134]
18 | 1000 to 10000 nM | 1000 to 10000 nM |  | Cn1cc(Nc2ncc(Cl)c(NCc3cccc(CS(C)(=O)=O)c3)n2)cn1 [Example I-442]
19 | 1000 to 10000 nM | 10 to 100 nM |  | CS(=O)(=O)c1ccc(F)c(CNc2nc(Nc3cnn(CC(N)=O)c3)ncc2F)c1 [Example I-116]
20 | 1000 to 10000 nM | 10 to 100 nM |  | CNC(=O)Cn1cc(Nc2ncc(F)c(NCc3c(F)ccc(OC)c3F)n2)cn1 [Example I-12]
21 | 1000 to 10000 nM | ≤ 10 nM |  | COc1ccc(F)c(CNc2ccnc(Nc3cnn(CC(=O)N[C@@H](C)CO)c3)n2)c1F [Example I-133]
22 | 1000 to 10000 nM | 10 to 100 nM |  | NC(=O)Cn1cc(Nc2ncc(Cl)c(NCc3c(F)cccc3F)n2)cn1 [Example I-240]
23 | 100 to 1000 nM | 100 to 1000 nM |  | COc1c(F)cccc1CNc1nc(Nc2cnn(CC(N)=O)c2)ncc1Cl [Example I-404]

Row | IC50 [1] | IC50 [2, 3] | IC50 ([2]; read-out: TYK2 IC50) | SMILES
24 | 1000 to 10000 nM | 10 to 100 nM |  | CNC(=O)Cn1cc(Nc2ncc(F)c(NCc3c(F)cccc3F)n2)cn1 [Example I-381]
25 | 100 to 1000 nM | 10 to 100 nM |  | COc1ccc(F)c(CNc2nc(Nc3cnn(CCO)c3)ncc2Cl)c1F [Example I-320]
26 | 1000 to 10000 nM | 10 to 100 nM |  | CC(C)NC(=O)Cn1cc(Nc2ncc(Cl)c(NCc3cccc(OC(F)F)c3)n2)cn1 [Example I-391]
27 | 1000 to 10000 nM | 10 to 100 nM |  | CCOc1ccc(F)c(CNc2nc(Nc3cnn(CC(=O)NC)c3)ncc2Cl)c1F [Example I-269]
28 | 1000 to 10000 nM | 10 to 100 nM |  | Cn1cc(Nc2ncc(Cl)c(NCc3c(F)cc(F)cc3F)n2)cn1 [Example I-385]
29 | 1000 to 10000 nM | 100 to 1000 nM |  | COc1ccccc1CNc1nc(Nc2cnn(C)c2)ncc1Cl [Example I-228]
30 | 1000 to 10000 nM | ≤ 10 nM |  | C[C@H](CO)NC(=O)Cn1cc(Nc2nccc(NCc3c(F)ccc(C#N)c3F)n2)cn1 [Example I-154]
31 | 1000 to 10000 nM | 10 to 100 nM |  | O=C(Cn1cc(Nc2nccc(NCc3c(F)cc(F)cc3F)n2)cn1)N1CCOCC1 [Example I-27]
32 | 100 to 1000 nM | 10 to 100 nM |  | NC(=O)Cn1cc(Nc2ncc(Cl)c(NCc3c(Cl)cccc3Cl)n2)cn1 [Example I-324]
33 | 1000 to 10000 nM | ≤ 10 nM |  | CC(C)NC(=O)Cn1cc(Nc2ncc(F)c(NCc3c(F)cccc3F)n2)cn1 [Example I-66]
34 | 100 to 1000 nM | 100 to 1000 nM |  | Cc1scnc1Cn1cc(Nc2ncc(Cl)c(NCc3c(F)cccc3F)n2)cn1 [Example I-484]
35 | 1000 to 10000 nM | 100 to 1000 nM |  | Cn1cc(Nc2ncc(Cl)c(NCc3cc(F)cc(C(F)(F)F)c3)n2)cn1 [Example I-166]
36 | 100 to 1000 nM | ≤ 10 nM |  | Cc1cnc(Nc2cnn(CCO)c2)nc1NCc1c(F)cccc1F [Example I-298]
37 | > 10000 nM | 10 to 100 nM |  | O=C(Cn1cc(Nc2ncc(F)c(NCc3cccc(OC(F)F)c3)n2)cn1)NC1CC1 [Example I-46]
38 | 100 to 1000 nM | 10 to 100 nM |  | CN(C)C(=O)Cn1cc(Nc2ncc(Cl)c(NCc3c(Cl)cccc3Cl)n2)cn1 [Example I-326]
39 | 100 to 1000 nM | 100 to 1000 nM |  | CS(=O)(=O)c1cccc(CNc2nc(Nc3cnn(CC(N)=O)c3)ncc2Cl)c1 [Example I-439]
40 | 100 to 1000 nM | 10 to 100 nM |  | OCCn1cc(Nc2ncc(Cl)c(NCc3ccc(O)cc3)n2)cn1 [Example I-219]
41 | 100 to 1000 nM | 10 to 100 nM |  | O=C(Cn1cc(Nc2ncc(Cl)c(NCc3ccccc3)n2)cn1)N1CCNCC1 [Example I-187]
42 | 1000 to 10000 nM | ≤ 10 nM |  | COc1ccc(Cl)c(CNc2ccnc(Nc3cnn(CC(=O)NC(C)C)c3)n2)c1F [Example I-79]
43 | 1000 to 10000 nM | 10 to 100 nM | < 100 nM | CC(C)NC(=O)Cn1cc(Nc2nccc(NCc3c(F)cc(F)cc3F)n2)cn1 [Example I-50]
44 | 100 to 1000 nM | 100 to 1000 nM |  | Cn1cc(Nc2ncc(F)c(NCc3cc(F)ccc3S(C)(=O)=O)n2)cn1 [Example I-487]
45 | 1000 to 10000 nM | 100 to 1000 nM |  | CNC(=O)Cn1cc(Nc2ncc(Cl)c(NCc3cccc(OC)c3)n2)cn1 [Example I-243]
46 | 1000 to 10000 nM | ≤ 10 nM |  | COc1ccc(F)c(CNc2ccnc(Nc3cnn(CC(=O)N4CCOCC4)c3)n2)c1F [Example I-117]

Row | IC50 [1] | IC50 [2, 3] | IC50 ([2]; read-out: TYK2 IC50) | SMILES
47 | 1000 to 10000 nM | 10 to 100 nM |  | Cc1cnc(Nc2cnn(CC(=O)N3CCOCC3)c2)nc1NCc1ccccc1 [Example I-296]
48 | 100 to 1000 nM | 10 to 100 nM |  | COc1ccc(F)c(CNc2nc(Nc3cnn(CC(=O)N(C)C)c3)ncc2Cl)c1F [Example I-376]
49 | 1000 to 10000 nM | 10 to 100 nM |  | Cc1ccc(F)c(CNc2nc(Nc3cnn(CC(=O)N(C)C)c3)ncc2Cl)c1F [Example I-283]
50 | 1000 to 10000 nM | 100 to 1000 nM |  | Cc1cnc(Nc2cnn(CC(F)F)c2)nc1NCc1ccc(S(N)(=O)=O)cc1 [Example I-465]
51 | 100 to 1000 nM | 100 to 1000 nM |  | CNS(=O)(=O)c1ccccc1CNc1nc(Nc2cnn(C)c2)ncc1Cl [Example I-473]
52 | 100 to 1000 nM | 10 to 100 nM |  | COc1ccc(S(C)(=O)=O)cc1CNc1nc(Nc2cnn(CCO)c2)ncc1F [Example I-88]
53 | 100 to 1000 nM | 10 to 100 nM |  | C[C@H](CO)NC(=O)Cn1cc(Nc2nccc(NCc3c(Cl)ccc(Cl)c3F)n2)cn1 [Example I-131]
54 | 1000 to 10000 nM | 10 to 100 nM |  | COc1ccc(F)c(CNc2ccnc(Nc3cnn(CC(=O)NCCF)c3)n2)c1F [Example I-126]
55 | 1000 to 10000 nM | 10 to 100 nM |  | Cn1cc(Nc2ncc(F)c(NCc3c(F)cc(S(N)(=O)=O)cc3F)n2)cn1 [Example I-379]
56 | 1000 to 10000 nM | 10 to 100 nM |  | Cc1ccc(F)c(CNc2nc(Nc3cn[nH]c3)ncc2Cl)c1F [Example I-371]
57 | 100 to 1000 nM | ≤ 10 nM |  | O=C(Cn1cc(Nc2ncc(Cl)c(NCc3c(F)cccc3F)n2)cn1)N1CCOCC1 [Example I-161]
58 | > 10000 nM | 10 to 100 nM |  | CC(C)(C)NC(=O)Cn1cc(Nc2nccc(NCc3c(F)cc(F)cc3F)n2)cn1 [Example I-51]
59 | 1000 to 10000 nM | 10 to 100 nM |  | CC1(C)CN(C(=O)Cn2cc(Nc3ncc(F)c(NCc4c(F)cc(F)cc4F)n3)cn2)CCO1 [Example I-39]
60 | 100 to 1000 nM | 10 to 100 nM |  | COc1c(F)cc(F)cc1CNc1nc(Nc2cnn(CC(=O)NC3CC3)c2)ncc1C [Example I-345]
61 | 100 to 1000 nM | 100 to 1000 nM |  | CC(CO)n1cc(Nc2ncc(Cl)c(NCc3ccccc3)n2)cn1 (stereo not shown) [Example I-361]
62 | 1000 to 10000 nM | 100 to 1000 nM |  | CNC(=O)Cn1cc(Nc2ncc(Cl)c(NCc3ccccc3)n2)cn1 [Example I-195]
63 | 1000 to 10000 nM | 10 to 100 nM |  | Cn1cc(Nc2ncc(F)c(NCc3cccc(C#N)c3)n2)cn1 [Example I-183]
64 | 1000 to 10000 nM | 100 to 1000 nM |  | Cn1cc(Nc2ncc(Cl)c(NCc3ccccc3)n2)cn1 [Example I-158]
65 | 1000 to 10000 nM | 10 to 100 nM |  | COc1ccc(F)c(CNc2nc(Nc3cnn(CC(=O)NC(C)C)c3)ncc2Cl)c1F [Example I-427]
66 | 1000 to 10000 nM | 10 to 100 nM |  | Cc1cnc(Nc2cnn(CC(=O)NC3CCC3)c2)nc1NCc1c(F)cc(F)cc1F [Example I-33]
67 | 1000 to 10000 nM | 10 to 100 nM |  | CNC(=O)Cn1cc(Nc2ncc(Cl)c(NCc3c(F)cccc3F)n2)cn1 [Example I-229]

From US9296725B2, “Heterocyclyl pyrimidine analogues as TYK2 inhibitors” (Cellzome Limited, priority 2012, dated 2016)
